How the values were obtained:
[1] = tested on: normal skin tissue-derived fibroblasts; assay: Cell viability of normal skin tissue-derived fibroblasts after TUDCA treatment (WST-1); assay type: cell-based, human; details: 12 hours after exposure to TUDCA; smaller effect than in keloid fibroblasts (FIG. 5C)
Protocol: (§1) Human keloid-derived fibroblasts and normal skin-derived fibroblasts were cultured in Dulbecco's modified Eagle's medium (DMEM; Invitrogen), 10% fetal bovine serum (FBS; Hyclone, Logan, Utah, USA), 100 U/mL penicillin and 100 µg/mL streptomycin (Invitrogen) media at 5% CO2. Keloid-derived fibroblasts are placed 1×10^4/well on 96-well plates, after treatment with tauroursodeoxycholic acid (TUDCA; Merck Millipore, Billerica, Mass., USA) for 24 hours, cell proliferation was measured with an enzyme-linked immunosorbent assay reader using a 450 nm WST-1 (Roche Diagnostics Corporation, Indianapolis, Ind., USA) assay.
(§2) After treatment with TUDCA, the viability of human keloid tissue-derived fibroblasts and normal skin tissue-derived fibroblasts was evaluated.

[2] = tested on: keloid pathway markers p-SMAD2/3 and TGFβ1; assay: Western blotting of keloid pathway markers in fibroblasts; assay type: cell-based, human; details: significant difference in keloid-derived versus normal skin-derived fibroblasts (FIG. 5D)
Protocol: Tissues were homogenized using a TissueLyzer II (Qiagen, Hilden, Germany). Cells and tissues were lysed in RIPA buffer (30 mM Tris [pH 7.5], 150 mM sodium chloride, 1 mM sodium phenylmethylsulfonyl fluoride, 1 mM sodium orthovanadate, 1% Nonidet P-40, 10% glycerol, phosphatase and protease inhibitors). Western blot analysis was performed with 40 μg of protein using a commercially available antibody. Anti-CHOP, anti-pERK, anti-ERK, anti-IRE1α, anti-pIRE1α, anti-pSMAD2/3 and anti-β-actin antibodies were purchased from Cell Signaling Technology (Beverly, Mass., USA). Anti-COL1A1, anti-ATF4, anti-TGFβ1, anti-IL-1 antibodies and secondary antibodies were purchased from Santa Cruz Biotechnology (Santa Cruz, Calif., USA) was used. Immune response bands were visualized by enhanced chemiluminescence (ECL) (Bio-Rad, Hercules, Calif., USA), and images were scanned using an Odyssey imaging system and quantified using Image Studio Digits (LI-COR Biosciences, Lincoln, Nebr., USA).
Human keloid-derived fibroblasts and normal skin-derived fibroblasts were cultured in Dulbecco's modified Eagle's medium (DMEM; Invitrogen), 10% fetal bovine serum (FBS; Hyclone, Logan, Utah, USA), 100 U/mL penicillin and 100 µg/mL streptomycin (Invitrogen) media at 5% CO2. […]
as §2

[3] = tested on: rabbit ear scar (keloid animal model); assay: Rabbit ear scar model, intralesional injection; assay type: in vivo, New Zealand white rabbit
Protocol: Animal studies were performed with the approval of the Preclinical Research Center (CNUH-019-A0079) of Chungnam National University Hospital. A 12-month-old female New Zealand white rabbit weighing about 4 kg was purchased from Damul Science (Daejeon, Korea), and all rabbits were kept individually in cages and received humane care according to institutional guidelines. After anesthetizing rabbits with a mixture of ketamine (60 mg/kg) and xylazine (5 mg/kg), the side ear hairs were shaved, disinfected with povidone-iodine, and then anesthetized. Next, after using a 10 mm biopsy punch to make 2 circular wounds with a diameter of 10 mm on the ventral surface of each ear, and covering the wound with an adhesive polyurethane dressing (Tegaderm; 3M, Minneapolis, Minn., USA), and once a day, the wound areas were disinfected with physiological saline and observed, and the adhesive polyurethane dressing was replaced. After wound formation, a simple dressing was maintained for 20 days to form a thick scar tissue, and on days 20 and 25 after wounding, saline, steroid (10 mg/mL) or TUDCA (10 mg/mL) was administered to the dermal region of the rabbit ear scar using a 30-gauge syringe (FIG. 1).
6. Scar Elevation Index (SEI) Calculation (Methods for Evaluating Keloid Tissue) SEI gives the ratio of total hypertrophic scar area to normal tissue present beneath the scar. In the present invention, the region where the cartilage layer is left as it is and the skin layer is excised is the B region. Area A contains an excessive amount of soft tissue compared to the surrounding normal dermal layer. An SEI greater than 1 indicates the formation of hypertrophic scars, keloids (FIG. 2).
Next, the efficacy of TUDCA for keloid improvement in a rabbit ear scar model was investigated.
On days 20 and 25 after wounding, normal saline (NS), steroids (10 mg/mL) or TUDCA (10 mg/mL) were injected into the scar dermis.

[4] = tested on: human keloid tissue-derived fibroblasts; assay: Cell viability of human keloid tissue-derived fibroblasts after TUDCA treatment (WST-1); assay type: cell-based; details: 6 hours, 12 hours, and 24 hours after TUDCA treatment (FIG. 5A)
Protocol: as §1, §2

[5] = tested on: COL1A2 and ER stress-related gene expression in human keloid tissue-derived fibroblasts; assay: COL1A2 and ER stress-related gene expression in TUDCA-treated keloid fibroblasts; assay type: cell-based; details: TUDCA-treated human keloid tissue-derived fibroblasts (FIG. 5B)

Question: `C[C@H](CCC(=O)NCCS(=O)(=O)O)[C@H]1CC[C@H]2[C@@H]3[C@@H](O)C[C@@H]4C[C@H](O)CC[C@]4(C)[C@H]3CC[C@]12C` [TUDCA, tauroursodeoxycholic acid] was tested. Which “viability of normal skin tissue-derived fibroblasts” value [1] did it give?
Answer: decreased

Question: What about the “level of TGFβ1” value [2] of the same compound?
Answer: reduced

Question: What about the “level of p-SMAD2/3” value [2] of the same compound?
Answer: reduced

Question: And the “gross appearance / healing of rabbit ear scars” value ([3]; 10 mg/mL injected into scar dermis on days 20 and 25 after wounding, compared with saline group (FIG. 7))?
Answer: healed better

Question: What about the “Scar Elevation Index (SEI)” value ([3]; 10 mg/mL intralesional, days 20 and 25, control group 2.778±0.346, p=0.0263 steroid, p=0.0098 TUDCA vs control) of the same compound?
Answer: 1.586±0.074

Question: What about the “irregular fiber deposition in scar tissue (H&E)” value ([3]; 10 mg/mL intralesional, days 20 and 25, tissue collected day 34, compared to saline group (FIG. 8)) of the same compound?
Answer: significantly reduced

Question: And the “decrease in SEI compared with the steroid group” value ([3]; rabbit ear scar model, p=0.0215)?
Answer: significantly greater decrease

Question: What about the cell viability [4] of the same compound?
Answer: significantly decreased

Question: And the “COL1A2 gene expression level” value [5]?
Answer: significantly reduced

Question: And the “ER stress-related gene expression levels” value [5]?
Answer: significantly reduced

— US20230046998A1, “COMPOSITION FOR PREVENTING OR TREATING KELOID” (CHUNGNAM NATIONAL UNIVERSITY HOSPITAL, priority 2021, published 2023)
